Among the data in patent US8129398B2 (priority 2008, dated 2012) are IC50 values, retold here.

A value given as a limit tells only on which side of the number the result lay.

The experiment addresses T1, HIV-integrase (Human immunodeficiency virus type 1 group M subtype B, UniProt P12497).
T1 construct: Recombinant integrase (0.26 ng) was incubated with the beads
Briefly: HIV-Integrase Inhibition Activity (SPA bead integration assay with P33 labeled target DNA). Format: biochemical. The following applies: recombinant integrase, class symbols; read-out: in vitro activity. The method in brief:
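Strand integration read as bead-proximity CPM after P33 target DNA (0.1 fmol) and inhibitor were added to washed integrase–substrate DNA complexes on SPA beads. Enzyme bound 90 min at 37° C; EDTA (10 mM final) terminated reaction; IC50 graded A/B/C.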
On to `O=C(NC12CCC(CCn3c1nc(C(=O)NCc1ccc(F)cc1)c(O)c3=O)C2)C(=O)N1CCCC1` (stereo not drawn) [Example 200, 8,11-Methano-4H-pyrimido[1,2-a]azocine-2-carboxamide, 11-[[1,2-dioxo-2-(1-pyrrolidinyl)ethyl]amino]-N-[(4-fluorophenyl)methyl]-6,7,8,9,10,11-hexahydro-3-hydroxy-4-oxo], for which the IC50 was below 10 nM.

As to `COc1ccccc1CNC(=O)c1nc2n(c(=O)c1O)CC1CCC2(NC(=O)C(=O)N(C)C)CC1` [Example 369], the IC50 is below 10 nM.

In the case of `Cc1ccc(C(=O)NC23CCC(CC2)Cn2c3nc(C(=O)NCc3ccc(F)cc3)c(O)c2=O)o1` [Example 237, 7,10-Ethanopyrimido[1,2-a]azepine-2-carboxamide, N-[(4-fluorophenyl)methyl]-4,6,7,8,9,10-hexahydro-3-hydroxy-10-[[(5-methyl-2-furanyl)carbonyl]amino]-4-oxo-], the IC50 is below 10 nM.

Turning to `Cc1nnc(C(=O)NC23CCC(CC2)n2c3nc(C(=O)NCc3ccc(F)cc3)c(O)c2=O)o1` [Example 17, 6,9-Ethano-4H-pyrido[1,2-a]pyrimidine-2-carboxamide, N-[(4-fluorophenyl)methyl]-6,7,8,9-tetrahydro-3-hydroxy-9-[[(5-methyl-1,3,4-oxadiazol-2-yl)carbonyl]amino]-4-oxo-], the IC50 is below 10 nM.

As for `COc1c(C(=O)NCc2ccc(F)cc2)nc2n(c1=O)CC1CCC2(NC(=O)CCC(=O)O)CC1` [Example 308, Butanoic acid, 4-[[2-[[[(4-fluorophenyl)methyl]amino]carbonyl]-6,7,8,9-tetrahydro-3-methoxy-4-oxo-7,10-ethanopyrimido[1,2-a]azepin-10(4H)-yl]amino]-4-oxo-], the IC50 is above 100 nM.

As to `CN(C)C(=O)C(=O)NC12CCC(CC1)Cn1c2nc(C(=O)NCCc2ccc(O)cc2)c(O)c1=O` [Example 347], the IC50 is above 100 nM.

As for `Cn1cc(C(=O)NC23CCC(CC2)Cn2c3nc(C(=O)NCc3ccc(F)cc3)c(O)c2=O)cn1` [Example 246, 7,10-Ethanopyrimido[1,2-a]azepine-2-carboxamide, N-[(4-fluorophenyl)methyl]-4,6,7,8,9,10-hexahydro-3-hydroxy-10-[[(1-methyl-1H-pyrazol-4-yl)carbonyl]amino]-4-oxo-], the IC50 was below 10 nM.

For the compound `O=C(NCc1ccc(F)cc1)c1nc2n(c(=O)c1O)CC1CCC2(NC(=O)C2CCOC2)CC1` (stereo not drawn) [Example 238, 7,10-Ethanopyrimido[1,2-a]azepine-2-carboxamide, N-[(4-fluorophenyl)methyl]-4,6,7,8,9,10-hexahydro-3-hydroxy-4-oxo-10-[[(tetrahydro-3-furanyl)carbonyl]amino]-], the IC50 was below 10 nM.

Take `CN(C)C(=O)C(=O)NC12CCC(CC1)Cn1c2nc(C(=O)NCCc2ccc(S(N)(=O)=O)cc2)c(O)c1=O` [Example 351]: the IC50 is above 100 nM.

Consider `CN(C)C(=O)C(=O)NC12CCC(CC1)Cn1c2nc(C(=O)NCc2ccccc2OC(F)(F)F)c(O)c1=O` [Example 386], for which the IC50 was below 10 nM.

With `Cc1cc(CNC(=O)c2nc3n(c(=O)c2O)CC2CCC3(NC(=O)N(C)c3ccccn3)CC2)ccc1F` [Example 329, 7,10-Ethanopyrimido[1,2-a]azepine-2-carboxamide, N-[(4-fluoro-3-methylphenyl)methyl]-4,6,7,8,9,10-hexahydro-3-hydroxy-10-[[(methyl-2-pyridinylamino)carbonyl]amino]-4-oxo-], the IC50 is below 10 nM.

On to `CC(=O)N[C@H]1CCN(C(=O)C(=O)NC23CCC(CC2)Cn2c3nc(C(=O)NCc3ccc(F)cc3)c(O)c2=O)C1` [Example 68, 10-((((3S)-3-(Acetylamino)-1-pyrrolidinyl) (oxo)acetyl)amino)-N-(4-fluorobenzyl)-3-hydroxy-4-oxo-4,6,7,8,9,10-hexahydro-7,10-ethanopyrimido[1,2-a]azepine-2-carboxamide], for which the IC50 is below 10 nM.
